In PubChem BioAssay (NCI) one finds TGI and GI50 data, which are given here for 22 compounds.

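Interpolation was linear, between the two tested concentrations surrounding the appropriate level; five concentrations were tested over 48 hours in 96-well plates. GI50 = concentration required for 50% inhibition of growth. The concentration for full growth arrest is given as TGI.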

Some test systems named below: RPMI-8226 leukemia; CCRF-CEM leukemia; SF-295 CNS; NCI-H226 lung; NCI-H522 lung; M14 melanoma; SN12C renal; HCT-15 colon; HCT-116 colon.
What all share (assay): NCI-60 cell line screen, 48 h

In the case of `CN1c2ccccc2N(C(=O)c2ccc([N+](=O)[O-])cc2)C(CC(=O)O)c2cccn21` (stereo not drawn), the TGI in the experiment with RPMI-8226 leukemia, in the experiment with CCRF-CEM leukemia, with SF-295 CNS, in the experiment with NCI-H226 lung, in the experiment with NCI-H522 lung and in the experiment with M14 melanoma was above 100 µM each time. Besides, the TGI in the experiment on SN12C renal and with HCT-15 colon was above 100 µM each time.

`Cn1c2c(c3ccccc31)CCN(CCCCN1CCCCC1)C2=O`: the TGI with RPMI-8226 leukemia, with CCRF-CEM leukemia, in the experiment with SF-295 CNS, in the experiment with NCI-H522 lung, in the experiment on M14 melanoma and in the experiment on SN12C renal was above 100 µM throughout. For the same compound, the TGI with HCT-116 colon and in the experiment on HCT-15 colon was above 100 µM in each case.

Turning to `O=C(/C=C/c1cc(Cl)cc(Cl)c1O)c1cccc(O)c1`, the TGI with RPMI-8226 leukemia was above 100 µM; in the experiment with CCRF-CEM leukemia it was above 100 µM; in the experiment on SF-295 CNS, 28.5 µM; with NCI-H226 lung, 30.6 µM; in the experiment on NCI-H522 lung it was above 100 µM; with M14 melanoma, above 100 µM. Moreover, the TGI was 27.7 µM in the experiment with SN12C renal, above 100 µM in the experiment with HCT-116 colon and above 100 µM in the experiment on HCT-15 colon.

Consider `COc1ccc(C(c2cc(OC)c(OC)c(OC)c2)n2ccnc2)cc1O` (stereo not drawn), for which the GI50 with RPMI-8226 leukemia is 0.385 µM; in the experiment with CCRF-CEM leukemia it was 0.289 µM; in the experiment on NCI-H226 lung, 0.64 µM; with NCI-H522 lung it was 0.247 µM; in the experiment on M14 melanoma, 0.18 µM; with SN12C renal it was 0.91 µM. Further, the GI50 was 0.249 µM in the experiment on HCT-116 colon and 0.464 µM in the experiment on HCT-15 colon. In addition, the TGI was above 100 µM in the experiment on RPMI-8226 leukemia; above 100 µM in the experiment on CCRF-CEM leukemia; above 100 µM in the experiment on NCI-H226 lung; 0.76 µM in the experiment on NCI-H522 lung; 0.646 µM in the experiment with M14 melanoma; above 100 µM in the experiment with SN12C renal. Further, the TGI in the experiment on HCT-116 colon and with HCT-15 colon was above 100 µM in each case.

Regarding `O=C(NCCCCCCCCCCCCNC(=O)c1cccc2ccccc12)c1cccc2ccccc12`, the TGI in the experiment on RPMI-8226 leukemia is above 100 µM; in the experiment with CCRF-CEM leukemia it was above 100 µM; in the experiment on SF-295 CNS, above 83 µM; in the experiment with NCI-H226 lung, above 82.2 µM; in the experiment on NCI-H522 lung, above 100 µM; in the experiment on M14 melanoma, above 100 µM. In addition, the TGI with SN12C renal, in the experiment with HCT-116 colon and in the experiment with HCT-15 colon was above 100 µM throughout.

As to `Cc1c(Cl)cccc1NC(=O)C(=O)C(C(=O)c1ccccc1-c1ccccc1)C1OC(=O)c2ccccc21` (stereo not drawn), the TGI with RPMI-8226 leukemia amounted to 59.1 µM; in the experiment with CCRF-CEM leukemia, 96.9 µM; in the experiment with SF-295 CNS, 45 µM; in the experiment with NCI-H226 lung, 18.1 µM; with NCI-H522 lung, 26.4 µM; in the experiment with M14 melanoma it was 36.3 µM. In the experiment with HCT-116 colon, this compound had a TGI of 25 µM.

Turning to `COC(=O)CCC(NC(=S)N/N=C(\C)c1cnc2ccccc2n1)C(=O)OC` (stereo not drawn), the TGI in the experiment on RPMI-8226 leukemia was 36.8 µM; in the experiment on CCRF-CEM leukemia it was 15.7 µM; in the experiment with SF-295 CNS it was above 100 µM; in the experiment on NCI-H226 lung it was above 100 µM; in the experiment with NCI-H522 lung it was 38.2 µM; in the experiment on M14 melanoma, above 100 µM. Moreover, the results for the TGI with SN12C renal, in the experiment on HCT-116 colon and with HCT-15 colon were above 100 µM, 38.6 µM and above 100 µM, respectively.

As to `CN1C(=O)CCC1(O)C1C=CC=CC1` (stereo not drawn), the TGI in the experiment with RPMI-8226 leukemia, in the experiment on CCRF-CEM leukemia, in the experiment on SF-295 CNS, with NCI-H226 lung, with NCI-H522 lung and in the experiment on M14 melanoma was above 100 µM each time. The TGI with SN12C renal, in the experiment on HCT-116 colon and in the experiment on HCT-15 colon was above 100 µM each time.

Consider `CN(C)C=Nc1ccn(CCO)c(=O)n1`, for which the TGI in the experiment with CCRF-CEM leukemia, with NCI-H226 lung, in the experiment with NCI-H522 lung, in the experiment with M14 melanoma, with SN12C renal and in the experiment with HCT-116 colon was above 100 µM each time. For the same compound, in the experiment with HCT-15 colon, the TGI was above 100 µM.

As for `Cc1cc(NCCCCCCCCNc2cc(C)nc3cc(N)ccc23)c2ccc(N)cc2n1`, the TGI in the experiment on RPMI-8226 leukemia was above 100 µM; in the experiment on CCRF-CEM leukemia it was 30.8 µM; in the experiment with SF-295 CNS it was 42 µM; in the experiment on NCI-H226 lung it was 93.3 µM; with NCI-H522 lung, 30.8 µM; in the experiment with M14 melanoma, 35.6 µM. Further, the TGI in the experiment with SN12C renal and in the experiment with HCT-15 colon was above 100 µM throughout.

Consider `CC(=O)OCC1OC(n2cc(F)c(=O)[nH]c2=O)C(NC(=O)N(CCCl)N=O)C(OC(C)=O)C1OC(C)=O` (stereo not drawn), for which the TGI in the experiment on RPMI-8226 leukemia, with CCRF-CEM leukemia, with SF-295 CNS, with NCI-H522 lung, with M14 melanoma and in the experiment on SN12C renal was above 100 µM in each case. The same compound yielded a TGI with HCT-116 colon above 100 µM.

For `N.N.N.N.N.[Co+3].[I-].[N-]=[N+]=[N-]`, the GI50 with RPMI-8226 leukemia is 35.5 µM; in the experiment with CCRF-CEM leukemia it was above 100 µM; with SF-295 CNS, above 100 µM; in the experiment with NCI-H522 lung, above 100 µM; in the experiment on M14 melanoma, above 100 µM; with SN12C renal, above 100 µM. The GI50 in the experiment with HCT-116 colon and in the experiment with HCT-15 colon was above 100 µM in each case. In addition, the TGI with RPMI-8226 leukemia, with CCRF-CEM leukemia, with SF-295 CNS, in the experiment with NCI-H522 lung, in the experiment on M14 melanoma and with SN12C renal was above 100 µM throughout. Besides, the TGI with HCT-116 colon and in the experiment with HCT-15 colon was above 100 µM each time.

Regarding `N#Cc1c(-c2ccc(Cl)c(Cl)c2)c(-c2ccc(Cl)c(Cl)c2)nn(CC(=O)O)c1=O`, the TGI with RPMI-8226 leukemia, in the experiment with CCRF-CEM leukemia, in the experiment with SF-295 CNS, in the experiment on NCI-H226 lung, in the experiment with M14 melanoma and in the experiment with SN12C renal was above 100 µM in each case. For the same compound, the TGI with HCT-116 colon and with HCT-15 colon was above 100 µM throughout.

Consider `N#CCCN(c1ccc(C=Nc2ccccc2)cc1)S(=O)(=O)c1ccccc1`, for which the TGI in the experiment with RPMI-8226 leukemia, with CCRF-CEM leukemia, with SF-295 CNS, in the experiment with NCI-H226 lung, in the experiment on NCI-H522 lung and in the experiment on M14 melanoma was above 100 µM throughout. Further, the TGI with SN12C renal and in the experiment with HCT-116 colon was above 100 µM in each case.

Consider `O=C1C2Nc3ccccc3SC2C(=O)N1c1ccc(Br)cc1` (stereo not drawn), for which the TGI in the experiment with RPMI-8226 leukemia was above 100 µM; in the experiment with SF-295 CNS, above 100 µM; in the experiment with NCI-H226 lung, 92.4 µM; in the experiment with NCI-H522 lung it was 89.8 µM; in the experiment on M14 melanoma it was above 100 µM; in the experiment on SN12C renal it was above 100 µM. This compound also yielded a TGI in the experiment with HCT-15 colon above 100 µM.

With `Cc1nc(-n2nc(-c3ccccc3)cc2-c2ccccc2)sc1C(=O)/C=C/c1ccc(/C=C/C(=O)c2sc(-n3nc(-c4ccccc4)cc3-c3ccccc3)nc2C)cc1`, the TGI was 96.7 µM in the experiment with CCRF-CEM leukemia; 51.8 µM in the experiment with SF-295 CNS; 71.2 µM with NCI-H226 lung; 34.4 µM in the experiment with NCI-H522 lung; 36.7 µM in the experiment with M14 melanoma; 43.5 µM with SN12C renal. The results for the TGI with HCT-116 colon and with HCT-15 colon were 37.4 µM and above 100 µM, respectively.

Turning to `Nc1ncnc2c1ncn2[C@]1(CO)C=C(CO)C(O)C1O` (stereo partly drawn), the TGI in the experiment with RPMI-8226 leukemia, with SF-295 CNS, with NCI-H226 lung, in the experiment with NCI-H522 lung, in the experiment with M14 melanoma and with SN12C renal was above 100 µM in each case. The TGI with HCT-116 colon and in the experiment with HCT-15 colon was above 100 µM in each case.

With `COc1ccc(NC(=O)C(=O)c2c(O)c3ccc(O)cc3oc2=O)c([N+](=O)[O-])c1`, the TGI with CCRF-CEM leukemia, in the experiment with SF-295 CNS, in the experiment with NCI-H226 lung, with NCI-H522 lung, in the experiment on M14 melanoma and in the experiment with HCT-116 colon was above 100 µM throughout. For the same compound, in the experiment with HCT-15 colon, the TGI is above 100 µM.

As to `Cc1cn(C2CC(O)C(COC(=O)c3ccccc3)O2)c(=O)[nH]c1=O` (stereo not drawn), the TGI in the experiment on RPMI-8226 leukemia, in the experiment on CCRF-CEM leukemia, in the experiment with SF-295 CNS, with NCI-H522 lung, in the experiment on M14 melanoma and with SN12C renal was above 100 µM each time. Moreover, the TGI in the experiment on HCT-116 colon and with HCT-15 colon was above 100 µM throughout.

Turning to `COc1ccc(C/C(=N/O)C(=O)NCCc2cc(Br)c(OCCCN(C)C)c(Br)c2)cc1Br`, the TGI with SF-295 CNS was found to be 34.7 µM; in the experiment with NCI-H522 lung, 31.5 µM; in the experiment with M14 melanoma it was 31.6 µM; in the experiment with SN12C renal, 33.8 µM; in the experiment on HCT-116 colon, 28 µM.

`O=C(N/C(=C\c1ccc(Cl)cc1)c1nc2ccccc2[nH]1)c1ccccc1`: the TGI is 42.6 µM with RPMI-8226 leukemia; 57.3 µM in the experiment on CCRF-CEM leukemia; 44.9 µM in the experiment on NCI-H226 lung; 30.7 µM with NCI-H522 lung; 34.1 µM in the experiment on M14 melanoma; 49.2 µM in the experiment on SN12C renal. Besides, the TGI was 29.1 µM in the experiment with HCT-116 colon and above 100 µM with HCT-15 colon.

On to `Cn1cc(C(=O)c2ccccc2)c2ccccc2c1=O`, for which the TGI in the experiment with RPMI-8226 leukemia, in the experiment on CCRF-CEM leukemia, with SF-295 CNS, in the experiment on NCI-H522 lung, in the experiment on M14 melanoma and with SN12C renal was above 100 µM each time. In addition, the TGI in the experiment with HCT-116 colon and in the experiment on HCT-15 colon was above 100 µM in each case.
